Assay type in all cases: cell-based
The target in one assay is T1, mTOR (Homo sapiens, UniProt P42345).
T1 construct: endogenous in cells; host or cells: A2780 ovarian cell line (ATCC)
Briefly: mTOR activity assay (cell ELISA, Phospho-AKT Ser 473, A2780 cells). The conditions noted are these: for inhibition at 1 µM: read-out: % Inhibition of mTOR activity at 1 μM. In outline:
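A2780 cells adhered 18-24 h, serum-starved 24 h, then stimulated with 20% FCS for 30 min alongside compound-treated sets. Fixed cells probed for phospho-AKT Ser473 by HRP/OPD cell ELISA, absorbance 490 nm. Values given as percentage or fold decrease in AKT phosphorylation relative to stimulated cells.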
On the technique in general: ELISA stands for enzyme-linked immunosorbent assay.

A further assay relates to A549. Description: Cytotoxicity assay (propidium iodide), A549. The conditions noted are these: Homo sapiens; A549 (C1a, lung); 48 hours.
A further assay concerns SKOV3. Briefly: Cytotoxicity assay (propidium iodide), SKOV3. The conditions noted are these: Homo sapiens, SK-OV-3; SKOV3 (C3b, ovarian); 48 hours.
The test system of the next assay is PANC 1. Description: Cytotoxicity assay (propidium iodide), PANC 1. The conditions noted are these: Homo sapiens; PANC 1 (C5a, pancreatic); 48 hours.
The test system of another assay is CAPAN1. Briefly: Cytotoxicity assay (propidium iodide), CAPAN1. The conditions noted are these: Homo sapiens, CAPAN-1; CAPAN1 (C5b, pancreatic); 48 hours.
The test system of the next assay is IL-6. Description: Synovial tissue assay, IL-6. The conditions noted are these: Homo sapiens; synovial tissue cells from rheumatoid arthritis patients, 16 hours. The method, then:
(§1) The assay was designed as in the reference, Lancet, 2(8657), 244-7, Jul.
(§2) Stock Solution: Compounds of the present invention were dissolved in DMSO to obtain a stock solution of 20 mM.
(§3) Synovial tissue was obtained from rheumatoid arthritis patients undergoing knee replacement surgery. The tissue was minced into small pieces and digested in RPMI medium containing 100 U/ml penicillin-G, 100 μg/ml streptomycin, 50 ng/ml amphotericin B (GIBCO; USA), 1.33 mg/ml collagenase Type I (Worthington Biochemical Corporation, New Jersey), 0.5 μg/ml DNAse Type I (Sigma Aldrich; St. Louis, Mo.) and 8.33 U/ml heparin (Biological E. Limited, India) for 3 hours at 37° C., 5% CO2. The digested tissue was filtered through a membrane (mesh size 70 micron; Sigma Aldrich). Subsequently, the cells were washed 3 times and resuspended in complete medium (RPMI supplemented with 5% FBS and 5% human serum-AB+) at a concentration of 1×10^6 cells/ml. All cell washes in this assay were performed using Rosewall Park Memorial Institute (RPMI)-1640 medium (JRH; Australia). For the experiment, 100 μl of cell suspension was added to the wells of a 96-well culture plate. Following cell plating, 100 μl of the culture medium and 1 μl of various concentrations (0.01, 0.03, 0.1, 0.3, 1, 3, 10, 30 and 100 μM) of the compounds of present invention dissolved in DMSO were added to the cells. The final concentration of DMSO was adjusted to 0.5%. For experimental purposes, 1 μl of […] concentrated solution of the compounds of present invention were dissolved in 200 μl cell suspension to achieve a final concentration of 0.01, 0.03, 0.1, 0.3, 1, 3, 10, 30 and 100 μM. The vehicle (0.5% DMSO) was used as control. 10 μM dexamethasone (Sigma Aldrich) or 1 μM 7-hydroxyfluorinide (7HF) were used as standards for the experiments. The plates were incubated for 16 hours at 37° C., 5% CO2. Subsequently, the supernatants were harvested and stored at −70° C. The amounts of TNF-α, IL-6 and interleukin-8 (IL-8) in the supernatants were assayed using OptiEIA ELISA sets, (BD BioSciences Pharmingen). The protocol followed was as per manufacturers instructions. […] The cytotoxicity of test compounds in synovial cells was assessed by MTS assay. Absorbance was measured at 490 nm. Percent cytotoxicity was calculated by the equation: % Cytotoxicity=(A−B)/A×100 where, A is the absorbance of cells treated with DMSO alone and B is the absorbance of cells treated with the test article.

The subject of a further assay is TNF-α. Description: Synovial tissue assay, TNF-α. The conditions noted are these: Homo sapiens; synovial tissue cells from rheumatoid arthritis patients, 16 hours. The method, then:
as §1, §2, §3

For the next assay, the system named is IL-8. Description: Synovial tissue assay, IL-8. The conditions noted are these: Homo sapiens; synovial tissue cells from rheumatoid arthritis patients, 16 hours. The method, then: as §1, §2, §3

Experimental for CAPAN1: (§4) Cells from cell lines as mentioned in the table given below were seeded at a density of 3000 cells/well in a white opaque 96-well plate. Following incubation at 37° C./5% CO2 for a period of 18-24 hours, the cells were treated with various concentrations (stock solution was prepared in DMSO and subsequent dilutions were made in media as per ATCC guidelines) of the representative compounds of present invention (refer table 3) for a period of 48 hours. At the end of treatment, the spent culture medium was discarded, the cells were washed with 1×PBS and 200 μl of 7 μg/ml propidium iodide was added to each well. The plates were frozen at −70° C. for at least 24 hours. For analysis, the plates were brought to RT, allowed to thaw and were read in PolarStar fluorimeter with the fluorescence setting. The percentage of viable cells in the non treated set of wells was considered to be 100 and the percentage viability following treatment was calculated accordingly. IC50 values were calculated from graphs plotted using these percentages.
Experimental for PANC 1: as §4
Experimental for SKOV3: as §4

`CN(N=Cc1cnc2ccc(-c3cccnc3)cn12)S(=O)(=O)c1cccc(F)c1` [Example 5, 3-Fluoro-N-methyl-N′-((6-(pyridine-3-yl)imidazo[1,2-a]pyridine-3-yl)methylene)benzenesulfonohydrazide]: the IC50 against mTOR is 1 to 5 µM; in the assay with A549, 0.01 to 5 µM; in the assay on SKOV3, 0.01 to 5 µM; in the assay on PANC 1, 0.01 to 5 µM; in the assay on CAPAN1, 0.01 to 5 µM; in the assay on IL-6 it was 0.01 to 0.3 µM. Besides, the half-inhibitory concentration (IC50) in the assay with TNF-α is 0.01 to 0.3 µM; in the assay on IL-8, 0.3 to 3 µM.

In the case of `CN(N=Cc1cnc2ccc(-c3cccnc3)cn12)S(=O)(=O)c1ccc(F)cc1` [Example 6, 4-Fluoro-N-methyl-N′-((6-(pyridine-3-yl)imidazo[1,2-a]pyridine-3-yl)methylene)benzenesulfonohydrazide], the inhibition at 1 µM at mTOR lay within 30 to 50%. Also, the IC50 fell in the range of 0.01 to 5 µM with A549; 0.01 to 5 µM in the assay with PANC 1; 0.01 to 5 µM in the assay on CAPAN1; 0.3 to 3 µM in the assay with IL-6; 0.01 to 0.3 µM in the assay with TNF-α; 0.3 to 3 µM with IL-8.

Consider `CN(N=Cc1cnc2ccc(-c3cccnc3)cn12)S(=O)(=O)c1cc(F)cc(F)c1` [Example 16, 3,5-Difluoro-N-methyl-N′-((6-(pyridine-3-yl)imidazo[1,2-a]pyridine-3-yl)methylene) benzenesulfonohydrazide], for which the inhibition at 1 µM at mTOR fell in the range of 30 to 50%. Moreover, the IC50 in the assay on IL-6 was in the range of 0.01 to 0.3 µM; in the assay with TNF-α it was 0.01 to 0.3 µM; in the assay on IL-8, 0.3 to 3 µM.

Regarding `Cc1ccc(F)cc1S(=O)(=O)N(C)N=Cc1cnc2ccc(-c3cccnc3)cn12` [Example 21, 5-Fluoro-N, 2-dimethyl-N′-((6-(pyridine-3-yl)imidazo[1,2-a]pyridine-3-yl)methylene) benzenesulfonohydrazide], the IC50 is 1 to 5 µM on mTOR; 0.01 to 5 µM with A549; 0.01 to 5 µM in the assay with SKOV3; 0.01 to 5 µM in the assay with PANC 1; 0.01 to 5 µM in the assay on CAPAN1; 0.01 to 0.3 µM in the assay on IL-6. Besides, the IC50 in the assay on TNF-α and in the assay on IL-8 was 0.01 to 0.3 µM in each case.

With `Cc1ccc([N+](=O)[O-])cc1S(=O)(=O)N(C)N=Cc1cnc2ccc(-c3cccnc3)cn12` [Example 25], the IC50 against mTOR is 1 to 5 µM; with A549 it was 0.01 to 5 µM; in the assay with SKOV3, 0.01 to 5 µM; in the assay with PANC 1 it was 0.01 to 5 µM; in the assay on CAPAN1 it was 0.01 to 5 µM; in the assay on IL-6, 0.01 to 0.3 µM. Also, the IC50 was 0.01 to 0.3 µM with TNF-α and 0.3 to 3 µM in the assay on IL-8.

What is called IC50 is the concentration that gives 50% inhibition. A higher IC50 goes with weaker potency in that assay. The term inhibition denotes the change of the read-out against control, counted positive when it falls.
